Measurements reported in patent US10501460B2, “Heterocyclic compounds and uses thereof” (Plexxikon Inc., priority 2013, dated 2019).

Legend:
bromodomain = experiment: Bromodomain cell assays of Example 40 (at least one of them); type: cell-based; settings: in at least one of the bromodomain cell assays described in Example 40
Source text: (§1) Published bromodomain inhibitors JQ1 and iBET 151 have shown activity in variety of cancer cells such leukemia and lymphoma, multiple myeloma cells, NUT midline carcinoma and glioblastoma cells (Dawson M A et al. 2011; Delmore J E 2011; Chen Z et al. 2013; Filippakopoulos P et al. 2010; Mertz J A et al. 2011; Ott C J et al. 2012). In this study, we test compounds in different cancer cell lines. MV-4-11 and MOLM-13 are AML cell lines harboring a MLL-AF4 and MLL-AF9 translocation, respectively. MM.1S is a multiple myeloma cell line. SK-N-AS, IMR-32 and SK-N-BE(2) are neuroblastoma cell lines. IMR-32 and SK-N-BE(2) cell lines harbor MYCN amplifications. MV-4-11, MM.1S, IMR-32, SK-N-AS and SK-N-BE(2) were obtained from ATCC (IL, USA) and MOLM-13 were purchased from DSMZ (Braunschweig, German). Cells are cultured as recommended by their sources. For growth inhibition studies 3000 cells are seeded in wells of a 96-well plate in 75 μL of culture media. After several hours, growth media containing compounds of formula (I) are added to the wells. Compound at a maximal concentration of 5 mM was serially diluted 1:3 for a total of 8 point titration with DMSO as a control. A 1 μL aliquot of each dilution point is added to 249 μL growth media and 75 μL is added to each well containing cells, providing 10 μM compound at the maximum concentration point. The final concentration of DMSO in all wells is 0.2%. Cells are incubated for 72 hours, and 25 μL of CellTiter Glo Reagent (Promega Ga., USA) is added to each well. Plates are shaken for approximately 10 minutes and chemiluminescent signal is read on Tecan microplate reader. The measured luminescence correlates directly with cell number.
(§2) All data is normalized to the mean of eight DMSO high control wells on each plate. A four parameter curve fit of the following formula was then applied: Y=a+(b−a)/(1+(x/c)^d) Where ‘a’ is the minimum, ‘b’ is the maximum, ‘c’ is the pIC50 and ‘d’ is the Hill slope. […] Myc Reporter Assay
In MV-4-11 cells, BRD2, BRD3 and BRD4 bind to the promoter region of MYC and regulate its transcription (Dawson M A et al. 2011). The literature bromodomain inhibitor iBET 151 could disrupt BRD4 recruitment to the MYC promoter and subsequently downregulate c-myc transcription (Dawson M A et al. 2011). Myc protein is a transcription factor that heterodimerizes with an obligatory partner Max and regulates the transcription of genes important for cell proliferation, differentiation, and apoptosis. This Myc reporter assay is used to monitor the inhibitory effect of compound of formula (I) on Myc dependent gene expression. Effective compounds could have potential therapeutic effects in Myc-driven tumors.
The MV-4-11 Myc reporter cell line is established by infecting MV-4-11 with VSV-g pseudotyped lentivirus expressing the firefly luciferase gene under the control of a minimal (m) CMV promoter and tandem repeats of the E-box transcriptional response element (TRE) (Qiagen IL, USA) and selecting cells in […] Puromycin.
The MV-4-11 Myc reporter cell line is maintained in Iscove's Modified Dulbecco's Medium containing 10% FBS, 1% PenStep and 2.5 μg/ml Puromycin. Cells are incubated at 37° C. in a humidified atmosphere with 5% CO2. 25,000 cells are seeded in 96-well plate in 50 μL of culture media. After several hours, growth media containing 2× compounds are added to the wells. Compound at a maximal concentration of 5 mM is serially diluted 1:3 for a total of 8 point titration. A 1 μl aliquot of each dilution point is added to 249 μl growth media and 50 μl is added to each well containing cells, providing 10 μM compound at the maximum concentration point. DMSO treated cells serve as a high control and 10 μM JQ1 treated cells serve as a low control. Cells are incubated for a further 24 hours and 25 μL of CellTiter-Fluo Reagent (Promega Ga., USA) is added to each well. Plates are shaken for approximately 2 minutes and incubated at 37° C. for 0.5 hour. […]

MV-4-11 = experiment: Oncology cell growth assay MV-4-11 (CellTiter Glo, 72 hours); type: cell-based; settings: Homo sapiens, MV4-11, 72 h; MV-4-11 cell growth inhibitory activity, 3d
Source text: as §1, §2
The following table provides data indicating the BRD4 biochemical inhibitory activity and MV-4-11 cell growth inhibitory activity for exemplary compounds as described herein.

Compound	IC50 (bromodomain) [nM]	IC50 (MV-4-11) [µM]
Cc1noc(C)c1-c1cnc2[nH]cc(Cc3cccnc3)c2c1 [P-0003, 3,5-dimethyl-4-[3-(3-pyridylmethyl)-1H-pyrrolo[2,3-b]pyridin-5-yl]isoxazole]	< 10000	≤ 1
Cc1noc(C)c1-c1cnc2[nH]c(C)c(Cc3cccnc3)c2c1 [P-0005, 3,5-dimethyl-4-[2-methyl-3-(3-pyridylmethyl)-1H-pyrrolo[2,3-b]pyridin-5-yl]isoxazole]	< 10000	≤ 1
Cc1noc(C)c1-c1cnc2[nH]c(-c3ccc(F)cc3)c(Cc3cccnc3)c2c1 [P-0007, 4-[2-(4-fluorophenyl)-3-(3-pyridylmethyl)-1H-pyrrolo[2,3-b]pyridin-5-yl]-3,5-dimethyl-isoxazole]	< 10000	≤ 1
Cc1noc(C)c1-c1cnc2[nH]c(C)c(C(O)c3cccnc3)c2c1 (centres unmarked) [P-0009, [5-(3,5-dimethylisoxazol-4-yl)-2-methyl-1H-pyrrolo[2,3-b]pyridin-3-yl]-(3-pyridyl)methanol]	< 10000	≤ 1
COc1ncc(F)cc1C(OC)c1c[nH]c2ncc(-c3c(C)noc3C)cc12 (centres unmarked) [P-0011, 4-[3-[(5-fluoro-2-methoxy-3-pyridyl)-methoxy-methyl]-1H-pyrrolo[2,3-b]pyridin-5-yl]-3,5-dimethyl-isoxazole]	< 10000	≤ 1
Cc1noc(C)c1-c1cnc2[nH]cc(C(O)c3ccc(OCC(F)(F)F)nc3)c2c1 (centres unmarked) [P-0012, [5-(3,5-dimethylisoxazol-4-yl)-1H-pyrrolo[2,3-b]pyridin-3-yl]-[6-(2,2,2-trifluoroethoxy)-3-pyridyl]methanol]	< 10000	1 to 10
COC(c1ccc(C(F)(F)F)nc1)c1c[nH]c2ncc(-c3c(C)noc3C)cc12 (centres unmarked) [P-0013, 4-[3-[methoxy-[6-(trifluoromethyl)-3-pyridyl]methyl]-1H-pyrrolo[2,3-b]pyridin-5-yl]-3,5-dimethyl-isoxazole]	< 10000	≤ 1
COC(c1c(F)cccc1Cl)c1c[nH]c2ncc(-c3c(C)noc3C)cc12 (centres unmarked) [P-0014, 4-[3-[(2-chloro-6-fluoro-phenyl)-methoxy-methyl]-1H-pyrrolo[2.3-b]pyridin-5-yl]-3,5-dimethyl-isoxazole]	< 10000	≤ 1
Cc1noc(C)c1-c1cnc2[nH]cc(C(O)c3ccccc3Cl)c2c1 (centres unmarked) [P-0019, (2-chlorophenyl)-[5-(3,5-dimethylisoxazol-4-yl)-1H-pyrrolo[2,3-b]pyridin-3-yl]methanol]	< 10000	≤ 1
COC(c1ccccc1Cl)c1c[nH]c2ncc(-c3c(C)noc3C)cc12 (centres unmarked) [P-0020, 4-[3-[(2-chlorophenyl)-methoxy-methyl]-1H-pyrrolo[2,3-b]pyridin-5-yl]-3,5-dimethyl-isoxazole]	< 10000	≤ 1
Cc1noc(C)c1-c1cnc2[nH]cc(C(O)c3c(F)cccc3Cl)c2c1 (centres unmarked) [P-0021, (2-chloro-6-fluoro-phenyl)-[5-(3,5-dimethylisoxazol-4-yl)-1H-pyrrolo[2,3-b]pyridin-3-yl] methanol]	< 10000	≤ 1
Cc1noc(C)c1-c1cnc2ccn(Cc3ccccc3)c2c1 [P-0162, 4-(1-benzylpyrrolo[3,2-b]pyridin-6-yl)-3,5-dimethyl-isoxazole]	–	≤ 1
Cc1noc(C)c1-c1cnc2[nH]cc(P(=O)(c3ccccc3)c3ccccc3)c2c1 [P-0166, 4-(3-diphenylphosphoryl-1H-pyrrolo[2,3-b]pyridin-5-yl)-3,5-dimethyl-isoxazole]	–	≤ 1
Cc1noc(C)c1-c1cnc2c(-c3cnn(C(F)F)c3)cn(C(C)c3ccccc3)c2c1 (centres unmarked) [P-0177, 4-[3-[1-(difluoromethyl)pyrazol-4-yl]-1-(1-phenylethyl)pyrrolo[3,2-b]pyridin-6-yl]-3,5-dimethyl-isoxazole]	–	≤ 1
Cc1noc(C)c1-c1cnc2c(c1)c(Sc1ccccc1)cn2-c1cnn(C)c1 [P-0184, 3,5-dimethyl-4-[1-(1-methylpyrazol-4-yl)-3-phenylsulfanyl-pyrrolo[2,3-b]pyridin-5-yl]isoxazole]	–	≤ 1
